Laboratory results from patent publication US10035810B2, “5,6-dihydro-4H-benzo[b]thieno-[2,3-d]azepine derivative” (PULMOCIDE LIMITED, priority 2014, dated 2018).

How the values were obtained:
RSV A2 [1] = assay: Virus titre in air-liquid interface (ALI) cultured bronchial epithelial cells (plaque assay); assay type: cell-based, respiratory syncytial virus
Experimental: Assessment of Virus Titre in Air-Liquid Interface (ALI) Cultured Bronchial Epithelial Cells
ALI cultured human bronchial epithelial cells were sourced from Epithelix Sàrl (Geneva, Switzerland) and maintained by changing the basal media every 3-4 days, whilst the apical surface was washed once weekly with PBS. On day 0, the apical surface of each well was washed once with sterile PBS (300 μL) and the inserts were transferred to new 24-well plates containing fresh MucilAir culture medium (780 μL; EP04MM). RSV A2 (50 μL; diluted in MucilAir culture medium to give a final MOI of 0.01) was added to cells for 1 hr (37° C./5% CO2). For the purposes of standardizing MOI calculations, each MucilAir insert was estimated to contain 2×10^5 apical facing cells per well. Virus inoculum was removed with a pipette and inserts were washed twice with sterile PBS (300 μL).
Sampling was conducted by adding sterile PBS (300 μL) to the apical surface of each well for 5 min. The apical sample was then removed and transferred to tubes containing 50% sucrose dissolved in PBS (100 μL) before being stored at −80° C. This harvesting procedure was repeated daily beginning on day 0 and concluding on day 7. […]
Virus titre was quantified by plaque assay. […] Plaques were counted by eye and confirmed using light microscopy, allowing the calculation of plaque forming units per mL.

RSV A2 [2] = assay: RSV infection in mice: virus titre in lung homogenate (plaque assay); assay type: in vivo, mice (male BALB/C); conditions: RSV A2 infected mice
Experimental: Non-fasted mice (male BALB/C, 20-30 g) were infected intranasally with RSV A2 or virus diluent (DMEM, 2% FBS, 12.5% sucrose) under isoflurane (5% in O2) anaesthesia. The A2 strain of RSV (50 uL of 1.3×10^6 PFU/mL: final 0.65×10^5 PFU/mouse) was instilled into each nostril in a drop wise fashion alternating between the two until a volume of 50 μL was delivered. Following infection each animal was weighed on a daily basis to monitor changes. Compound (I) was dissolved in 100% DMSO (at 20 mg/mL and/or 2 mg/mL), then diluted at 1:10 in isotonic saline to achieve 10% DMSO in all treatments. Formulations were then sonicated to produce a suspension. The suspension was administered intratracheally (20 μL) with a FMJ-250 PennCentury device or intranasally (40 μL) with a pipette on 1 day and 1 hr before infection (day 0), and then on days 1, 2 and 3 post infection. Four days after RSV challenge, the animals were euthanised (by intraperitoneal injection of a pentobarbitone overdose), the trachea cannulated and BALF extracted for total and differential cell counts. […]
Anti-RSV F-protein antibody [2F7] […] Plaques were counted by eye and confirmed using light microscopy, allowing the calculation of plaque forming units per mL of lung homogenate supernatant.

Structure (SMILES): Cc1cnc(N2CC3(CCOCC3)C2)c(C(=O)Nc2ccc(C(=O)N3CCc4cc(C(=O)Nc5c(C)cccc5F)sc4-c4ccccc43)cc2)c1 [Compound (I), N-(2-fluoro-6-methylphenyl)-6-(4-(5-methyl-2-(7-oxa-2-azaspiro[3.5]nonan-2-yl)nicotinamido)benzoyl)-5,6-dihydro-4H-benzo[b]thieno[2,3-d]azepine-2-carboxamide]
- Inhibition of RSV titre in ALI culture (in words) (RSV A2 [1]; early intervention, daily day 0 to day 7, 0.1 μg/mL, over 7 days): complete inhibition
- Virus titre in ALI culture (in words) (RSV A2 [1]; late intervention, administered from day 3, days 6 and 7 post infection): dramatic reduction of virus titre
- Virus titre in the lungs (in words) (RSV A2 [2]): completely inhibited virus titre
- Viral titre in lung homogenates (in words) (RSV A2 [2]; intranasally or intratracheally): potent dose-dependent inhibition of viral titre
